Values belong to the compound of their own block, whether it stands above or below them.
How the values were obtained:
[1] = molecular target: T1, Dat (dopamine N-acetyltransferase), wild-type / full-length (Drosophila melanogaster, UniProt Q94521); assay: isothermal titration calorimetry; type: binding
[2] = molecular target: Dat (dopamine N-acetyltransferase), wild-type / full-length (Drosophila melanogaster, UniProt Q94521, S217A); assay: Ellman's reagent; settings: read-out: Tryptamine Km; 30 °C, 50 mM sodium phosphate pH 7.2, 500 mM NaCl, 2 mM EDTA, 2 mM AcCoA
[3] = molecular target: Dat (dopamine N-acetyltransferase), wild-type / full-length (Drosophila melanogaster, UniProt Q94521, E82A); assay: Ellman's reagent; settings: read-out: Tryptamine Km; 30 °C, 50 mM sodium phosphate pH 7.2, 500 mM NaCl, 2 mM EDTA, 2 mM AcCoA
[4] = molecular target: T1, Dat (dopamine N-acetyltransferase), wild-type / full-length; assay: Ellman's reagent; settings: read-out: Tryptamine Km; 30 °C, 50 mM sodium phosphate pH 7.2, 500 mM NaCl, 2 mM EDTA, 2 mM AcCoA
[5] = molecular target: Dat (dopamine N-acetyltransferase), wild-type / full-length (Drosophila melanogaster, UniProt Q94521, Y220F); assay: Ellman's reagent; settings: read-out: Tryptamine Km; 30 °C, 50 mM sodium phosphate pH 7.2, 500 mM NaCl, 2 mM EDTA, 2 mM AcCoA
[6] = molecular target: Dat (dopamine N-acetyltransferase), wild-type / full-length (Drosophila melanogaster, UniProt Q94521, S221A); assay: Ellman's reagent; settings: read-out: Tryptamine Km; 30 °C, 50 mM sodium phosphate pH 7.2, 500 mM NaCl, 2 mM EDTA, 2 mM AcCoA
[7] = molecular target: Dat (dopamine N-acetyltransferase), wild-type / full-length (Drosophila melanogaster, UniProt Q94521, Y220A); assay: Ellman's reagent; settings: read-out: Tryptamine Km; 30 °C, 50 mM sodium phosphate pH 7.2, 500 mM NaCl, 2 mM EDTA, 2 mM AcCoA
Chain of Dat (dopamine N-acetyltransferase), wild-type / full-length (Drosophila melanogaster, UniProt Q94521, Y220A) (Q94521 36-275 Y220A): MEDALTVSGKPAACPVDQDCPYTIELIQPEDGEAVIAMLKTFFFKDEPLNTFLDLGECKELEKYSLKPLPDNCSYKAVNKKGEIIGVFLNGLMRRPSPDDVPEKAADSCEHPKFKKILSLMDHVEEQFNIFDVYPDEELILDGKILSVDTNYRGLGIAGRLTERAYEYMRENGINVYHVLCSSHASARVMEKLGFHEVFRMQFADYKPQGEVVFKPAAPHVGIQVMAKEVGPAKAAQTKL

T1 sequence (Q94521 36-275): as the sequence (Q94521 36-275 Y220A) above, with A185Y counted along it
Chain of Dat (dopamine N-acetyltransferase), wild-type / full-length (Drosophila melanogaster, UniProt Q94521, S221A) (Q94521 36-275 S221A): as the sequence (Q94521 36-275 Y220A) above, with A185Y, S186A counted along it
Chain of Dat (dopamine N-acetyltransferase), wild-type / full-length (Drosophila melanogaster, UniProt Q94521, E82A) (Q94521 36-275 E82A): as the sequence (Q94521 36-275 Y220A) above, with E47A, A185Y counted along it
Chain of Dat (dopamine N-acetyltransferase), wild-type / full-length (Drosophila melanogaster, UniProt Q94521, S217A) (Q94521 36-275 S217A): as the sequence (Q94521 36-275 Y220A) above, with S182A, A185Y counted along it
Chain of Dat (dopamine N-acetyltransferase), wild-type / full-length (Drosophila melanogaster, UniProt Q94521, Y220F) (Q94521 36-275 Y220F): as the sequence (Q94521 36-275 Y220A) above, with A185F counted along it

Kd [1]: 5.43 ± 1.09 µM
Compound: CC(=O)SCCNC(=O)CCNC(=O)[C@H](O)C(C)(C)COP(=O)(O)OP(=O)(O)OC[C@H]1O[C@@H](n2cnc3c(N)ncnc32)[C@H](O)[C@@H]1OP(=O)(O)O [AcCoA]

Kd [1]: 25.9 ± 2.5 µM
Compound: NCCc1ccc(O)c(O)c1 [dopamine]

Compound: NCCc1c[nH]c2ccc(O)cc12 [serotonin]
Kd [1]: 223 µM

Compound: NCCc1c[nH]c2ccccc12 [tryptamine]
Km [2]: 650 ± 90 µM | Km [3]: 1200 ± 100 µM | Km [4]: 470 ± 90 µM | Km [5]: 470 ± 80 µM | Km [6]: 550 ± 70 µM | Km [7]: 490 ± 70 µM

Source: paper PMC3429931 (Biochemical Journal, 2012)
